Experimental data taken from US9493468B2, “Antifungal 5,6-dihydro-4H-pyrrolo[1,2-a][1,4]benzo-diazepines and 6H-pyrrolo[1,2-a][1,4]benzodiazepines substituted with heterocyclic derivatives” (Janssen Pharmaceutica NV, priority 2011, dated 2016).

What was measured:
Assay type in all cases: cell-based
Scedosporium apiospermum = experiment: Antifungal activity in vitro, resazurin growth inhibition: Scedosporium apiospermum (IHEM3817)
In short: (§1)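 Resazurin conversion to fluorescent resorufin (ex 550/em 590 nm) served as the growth readout. Compounds spanned 2- or 4-fold serial dilutions with 64 μM top in-test concentration; inoculum 10^3 cfu per well in MOPS-buffered RPMI-1640 (pH 7.0, 2% glucose). Incubation species-dependent, dermatophytes at 27° C. for ≥1 week.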

Cryptococcus neoformans = experiment: Antifungal activity in vitro, resazurin growth inhibition: Cryptococcus neoformans (B66663)
In short: as §1

Scedosporium prolificans = experiment: Antifungal activity in vitro, resazurin growth inhibition: Scedosporium prolificans (IHEM21157)
In short: as §1

Trichophyton rubrum = experiment: Antifungal activity in vitro, resazurin growth inhibition: Trichophyton rubrum (B68183)
In short: as §1

Rhizopus oryzae = experiment: Antifungal activity in vitro, resazurin growth inhibition: Rhizopus oryzae (IHEM5223)
In short: as §1

Candida parapsilosis = experiment: Antifungal activity in vitro, resazurin growth inhibition: Candida parapsilosis (B66126)
In short: as §1

Aspergillus fumigatus = experiment: Antifungal activity in vitro, resazurin growth inhibition: Aspergillus fumigatus (B42928)
In short: as §1

Rhizomucor miehei = experiment: Antifungal activity in vitro, resazurin growth inhibition: Rhizomucor miehei (IHEM13391)
In short: as §1

[1] = test system: Trichophyton mentagrophytes; experiment: Antifungal activity in vitro, resazurin growth inhibition: Trichophyton mentagrophytes (B70554)
In short: as §1

Sporothrix schenkii = experiment: Antifungal activity in vitro, resazurin growth inhibition: Sporothrix schenkii (B62482)
In short: as §1

Microsporum canis = experiment: Antifungal activity in vitro, resazurin growth inhibition: Microsporum canis (B68128)
In short: as §1

SMILES	Inf. H: Scedosporium apiospermum IHEM3817, pIC50 (Scedosporium apiospermum)	Inf. F: Cryptococcus neoformans B66663, pIC50 (Cryptococcus neoformans)	Inf. I: Scedosporium prolificans IHEM21157, pIC50 (Scedosporium prolificans)	Inf. C: Trichophyton rubrum B68183, pIC50 (Trichophyton rubrum)	Inf. J: Rhizopus oryzae IHEM5223, pIC50 (Rhizopus oryzae)	Inf. D: Candida parapsilosis B66126, pIC50 (Candida parapsilosis)	Inf. E: Aspergillus fumigatus B42928, pIC50 (Aspergillus fumigatus)	Inf. K: Rhizomucor miehei IHEM13391, pIC50 (Rhizomucor miehei)	Inf. G: Trichophyton mentagrophytes B70554, pIC50 [1]	Inf. A: Sporothrix schenkii B62482, pIC50 (Sporothrix schenkii)	Inf. B: Microsporum canis B68128, pIC50 (Microsporum canis)
Clc1cccc2c1CN=C(c1ccc3ncsc3c1)c1cccn1-2 [Compound 184]	<4.19	<4.19	6.15	7.32	<4.19	<4.19	6.27	<4.19	6.51	<4.19	6.70
Fc1cc(F)c2c(c1)-n1cccc1C(c1ccc3sccc3c1)=NC2 [Compound 176]	5.54	6.49	6.15	6.90	<4.19	6.03	6.49	<4.19	6.57	5.70	6.89
CCc1ccc(C2=NCc3c(Cl)cccc3-n3cccc32)cn1 [Compound 74]	6.29	<4.19	6.88	6.31	<4.19	4.92	5.25	<4.19	6.18	4.44	5.91
Fc1cccc2c1CN=C(c1ccc3sccc3c1)c1cccn1-2 [Compound 175]	5.08	6.41	5.56	7.36	5.07	6.17	6.85	5.14	7.11	5.70	6.90
Cc1cccc2c1CN=C(c1cc3cccc(C)c3o1)c1cccn1-2 [Compound 131]	5.355	6.11	5.99	7.10	<4.34	4.81	6.11	4.59	6.31	5.51	6.50
Cc1cccc2c1CNC(c1cc3cc(Cl)ccc3o1)c1cccn1-2.Cl (racemic) [Compound 34]	<4.19	<4.19	5.66	6.72	<4.19	<4.19	<4.19	<4.19	6.22	<4.19	6.40
Clc1cc(Cl)c2c(c1)-n1cccc1C(c1cc3ccccc3s1)=NC2 [Compound 168]	<4.19	6.41	6.48	6.18	<4.19	<4.19	6.73	<4.19	6.40	6.22	4.96
Fc1cccc2cc(C3=NCc4c(Cl)cccc4-n4cccc43)sc12 [Compound 170]	5.63	6.47	6.51	6.63	<4.19	<4.19	5.74	<4.19	6.18	5.55	6.23
Clc1cccc2c1CN=C(c1cnc3occc3c1)c1cccn1-2 [Compound 161]	6.47	4.56	6.27	6.12	<4.19	<4.19	5.04	<4.19	5.40	5.02	5.96
Cc1cccc2cc(C3=NCc4ccccc4-n4cccc43)oc12 [Compound 130]	6.01	6.31	5.08	7.69	4.95	5.35	6.00	4.91	6.79	5.50	6.70
FC(F)(F)c1ccc(C2=NCc3c(Cl)cc(Cl)cc3-n3cccc32)cn1 [Compound 91]	<4.19	<4.19	5.28	6.27	<4.19	<4.19	5.75	<4.19	5.72	5.10	5.69
CC(F)(F)c1ccc(C2=NCc3c(Cl)cc(Cl)cc3-n3cccc32)cn1 [Compound 84]	5.31	5.88	<4.19	6.26	<4.19	5.44	6.24	<4.19	5.88	5.65	6.24
Clc1ccc2c(c1)-n1cccc1C(c1ccc3ncsc3c1)=NC2 [Compound 185]	4.41	6.33	5.16	6.73	<4.19	4.23	6.29	<4.19	6.04	5.28	6.39
